In patent publication US4659825A, “Isomeric O-phosphonylmethyl derivatives of enantiomeric and racemic 9-(2,3-dihydroxypropyl)adenine” (Ceskoslovenska akademie, priority 1983, dated 1987):

System: Pyrrhocoris apterus L.
Test: Ovicidal activity (chemosterilizing): inhibition of egg hatching in the first and second egg batch after oral administration to adults of both sexes
Format: in vivo
Settings: drinking water
Description: The test animals were freshly emerged adults of Pyrrhocoris apterus L. and the tested compounds were administered as solutions in drinking water. The concentration 1 mg.ml^-1 corresponded to the dose of 1 mg/g/24 h. Each test was performed on a group of 10 males and 10 females and evaluated according to toxicity and hatchability of the eggs of the first and the second egg batches.

Structure (SMILES)	Inhibition of egg hatching in the first and second egg batch (% inhibition, related to control eggs) (0.01 mg.ml^-1 of water) [%]	Inhibition of egg hatching in the first and second egg batch (% inhibition, related to control eggs) (0.05 mg.ml^-1 of water) [%]	Inhibition of egg hatching in the first and second egg batch (% inhibition, related to control eggs) (0.1 mg.ml^-1 of water) [%]	Inhibition of egg hatching in the first and second egg batch (% inhibition, related to control eggs) (1.0 mg.ml^-1 of water (1 mg.ml^-1 corresponded to the dose of 1 mg/g/24 h)) [%]
Nc1ncnc2c1ncn2CC(O)CO (racemic) [compound 3, (RS)-9-(2,3-dihydroxypropyl)adenine]	0	10	37	100
Nc1ncnc2c1ncn2CC(O)COCP(=O)(O)O (racemic) [3'-isomer]			61	
Nc1ncnc2c1ncn2CC(CO)OCP(=O)(O)O (racemic) [2'-isomer]			27	
